From patent US12552825B2 (Zikani Therapeutics, Inc., priority 2019, dated 2026) come the findings set out here.

Holding throughout (assay type): cell-based
For one test, the system named is S. aureus MP-12. The test is described as follows: microbe, parasite or virus in culture. As to conditions: Staphylococcus aureus, MP12, read-out: MIC S. aureus MP-12.
The next test concerns E. coli MP-4. Description: MIC determination by CLSI broth dilution, E. coli MP-4. As to conditions: Escherichia coli, MP4, CLSI broth dilution; strain MP-4.
A further test has as its system K. pneumoniae MP-546. The test is described as follows: MIC determination by CLSI broth dilution, K. pneumoniae MP-546. The conditions noted are these: Klebsiella pneumoniae, MP546, CLSI broth dilution; strain MP-546.
The subject of another test is K. pneumoniae MP-648. Description: MIC determination by CLSI broth dilution, K. pneumoniae MP-648. The conditions noted are these: strain MP-648; for MIC: Klebsiella pneumoniae, MP648, CLSI broth dilution.
The next test deals with P. aeruginosa MP-3. Description: MIC determination by CLSI broth dilution, P. aeruginosa MP-3. The conditions noted are these: Pseudomonas aeruginosa, MP3, strain MP-3.
A further test relates to A. baumannii MP-15. The test is described as follows: MIC determination by CLSI broth dilution, A. baumannii MP-15. As to conditions: Acinetobacter baumannii, MP15, strain MP-15, read-out: MIC A. baumanii MP-15.

Each structure is given as a SMILES string. In brackets after ≈: the same amount, converted by molar mass.

Consider `CCN1C[C@H](C)C[C@@](C)(OC)[C@H](O[C@@H]2O[C@H](C)C[C@H](N(C)C)[C@H]2O)[C@@H](C)C(=O)C(C)(C)C(=O)OC[C@H]1CCCN1CCC[C@@H]1C` [Compound 88, (3R,6R,8R,9R,10R)-9-(((2S,3R,4S,6R)-4-(dimethylamino)-3-hydroxy-6-methyltetrahydro-2H-pyran-2-yl)oxy)-4-ethyl-8-methoxy-6,8,10,12,12-pentamethyl-3-(3-((S)-2-methylpyrrolidin-1-yl)propyl)-1-oxa-4-azacyclotridecane-11,13-dione], for which the MIC with S. aureus MP-12 was 4 to 32 µg/mL (≈ 6.25 to 50 µM); with E. coli MP-4 it was < 4 µg/mL; in the test on K. pneumoniae MP-546 it was < 4 µg/mL; against K. pneumoniae MP-648 it was < 4 µg/mL; against P. aeruginosa MP-3, > 32 µg/mL; with A. baumannii MP-15, > 32 µg/mL.

As for `CO[C@]1(C)C[C@@H](C)CN(C)[C@@H](CCCN2CC[C@H](F)C2)COC(=O)C(C)(C)C(=O)[C@H](C)[C@H]1O[C@@H]1O[C@H](C)C[C@H](N(C)C)[C@H]1O` [Compound 125, (3S,6R,8R,9R,10R)-9-(((2S,3R,4S,6R)-4-(dimethylamino)-3-hydroxy-6-methyltetrahydro-2H-pyran-2-yl)oxy)-3-(3-((S)-3-fluoropyrrolidin-1-yl)propyl)-8-methoxy-4,6,8,10,12,12-hexamethyl-1-oxa-4-azacyclotridecane-11,13-dione], the MIC with S. aureus MP-12 is 4 to 32 µg/mL (≈ 6.35 to 50.8 µM); in the test on E. coli MP-4 it was < 4 µg/mL; with K. pneumoniae MP-546, < 4 µg/mL; with K. pneumoniae MP-648, 4 to 32 µg/mL (≈ 6.35 to 50.8 µM); in the test with P. aeruginosa MP-3, > 32 µg/mL; with A. baumannii MP-15 it was > 32 µg/mL.

With `CO[C@]1(C)C[C@@H](C)CN(CC(C)C)[C@@H](CCCN2CCc3ccccc3C2)COC(=O)C(C)(C)C(=O)[C@H](C)[C@H]1O[C@@H]1O[C@H](C)C[C@H](N(C)C)[C@H]1O` [Compound 141, (3S,6R,8R,9R,10R)-3-(3-(3,4-dihydroisoquinolin-2 (1H)-yl)propyl)-9-(((2S,3R,4S,6R)-4-(dimethylamino)-3-hydroxy-6-methyltetrahydro-2H-pyran-2-yl)oxy)-4-isobutyl-8-methoxy-6,8,10,12,12-pentamethyl-1-oxa-4-azacyclotridecane-11,13-dione], the MIC is < 4 µg/mL in the test on S. aureus MP-12; < 4 µg/mL with E. coli MP-4; < 4 µg/mL against K. pneumoniae MP-546; 4 to 32 µg/mL (≈ 5.59 to 44.7 µM) against K. pneumoniae MP-648; > 32 µg/mL against P. aeruginosa MP-3; > 32 µg/mL in the test on A. baumannii MP-15.

Consider `CCCCCCCN1CCC(C[C@@H]2COC(=O)[C@@](C)(Cl)C(=O)[C@H](C)[C@@H](O[C@@H]3O[C@H](C)C[C@H](N(C)C)[C@H]3O)[C@](C)(OC)C[C@@H](C)CN2C)CC1` [Compound 173], for which the MIC is > 32 µg/mL in the test with S. aureus MP-12; < 4 µg/mL in the test with E. coli MP-4; < 4 µg/mL with K. pneumoniae MP-546; 4 to 32 µg/mL (≈ 5.58 to 44.7 µM) in the test on K. pneumoniae MP-648; > 32 µg/mL in the test on P. aeruginosa MP-3; > 32 µg/mL with A. baumannii MP-15.

Turning to `CCC(CC)CN1CCC(C[C@@H]2COC(=O)C(C)(C)C(=O)[C@H](C)[C@@H](O[C@@H]3O[C@H](C)C[C@H](N(C)C)[C@H]3O)[C@](C)(OC)C[C@@H](C)CN2C)CC1` [Compound 58], the MIC with S. aureus MP-12 is 4 to 32 µg/mL (≈ 5.87 to 46.9 µM); with E. coli MP-4, < 4 µg/mL; in the test on K. pneumoniae MP-546, < 4 µg/mL; against K. pneumoniae MP-648, < 4 µg/mL; against P. aeruginosa MP-3 it was > 32 µg/mL; with A. baumannii MP-15, > 32 µg/mL.

Take `C=C(C)C[C@]1(C)C(=O)OC[C@@H](CC2CCN(CCCCCCC)CC2)N(C)C[C@H](C)C[C@@](C)(OC)[C@H](O[C@@H]2O[C@H](C)C[C@H](N(C)C)[C@H]2O)[C@@H](C)C1=O` [Compound 172]: the MIC with S. aureus MP-12 was 4 to 32 µg/mL (≈ 5.43 to 43.5 µM); in the test with E. coli MP-4, 4 to 32 µg/mL (≈ 5.43 to 43.5 µM); against K. pneumoniae MP-546 it was 4 to 32 µg/mL (≈ 5.43 to 43.5 µM); in the test with P. aeruginosa MP-3 it was > 32 µg/mL; with A. baumannii MP-15 it was > 32 µg/mL. For the same compound, in the test on K. pneumoniae MP-648 (CLSI broth dilution), the “MIC K. pneumoniae MP-648” value is “++ (values of greater than 4 mg/L and less than or equal to 32 mg/L)”.

Regarding `CO[C@]1(C)C[C@@H](C)CN(C)[C@@H](CCCN2CCC(C)(C)CC2)COC(=O)C(C)(C)C(=O)[C@H](C)[C@H]1O[C@@H]1O[C@H](C)C[C@H](N(C)C)[C@H]1O` [Compound 128, (3S,6R,8R,9R,10R)-9-(((2S,3R,4S,6R)-4-(dimethylamino)-3-hydroxy-6-methyltetrahydro-2H-pyran-2-yl)oxy)-3-(3-(4,4-dimethylpiperidin-1-yl)propyl)-8-methoxy-4,6,8,10,12,12-hexamethyl-1-oxa-4-azacyclotridecane-11,13-dione], the MIC in the test on S. aureus MP-12 was 4 to 32 µg/mL (≈ 6.12 to 48.9 µM); in the test on E. coli MP-4, < 4 µg/mL; against K. pneumoniae MP-546, < 4 µg/mL; against K. pneumoniae MP-648, < 4 µg/mL; against P. aeruginosa MP-3 it was > 32 µg/mL; in the test with A. baumannii MP-15, > 32 µg/mL.

As for `CO[C@]1(C)C[C@@H](C)CN(C)[C@@H](CCCN2Cc3ccccc3C2)COC(=O)C(C)(C)C(=O)[C@H](C)[C@H]1O[C@@H]1O[C@H](C)C[C@H](N(C)C)[C@H]1O` [Compound 112], the MIC in the test on S. aureus MP-12 was < 4 µg/mL; in the test on E. coli MP-4, < 4 µg/mL; with K. pneumoniae MP-546, < 4 µg/mL; against K. pneumoniae MP-648, < 4 µg/mL; with P. aeruginosa MP-3, > 32 µg/mL; in the test on A. baumannii MP-15, 4 to 32 µg/mL (≈ 6.06 to 48.5 µM).

As to `CO[C@]1(C)C[C@@H](C)CN(C)[C@H](C=C2CCN(CC3CC3)CC2)COC(=O)C(C)(C)C(=O)[C@H](C)[C@H]1O[C@@H]1O[C@H](C)C[C@H](N(C)C)[C@H]1O` [Compound 150], the MIC with S. aureus MP-12 is 4 to 32 µg/mL (≈ 6.15 to 49.2 µM); with E. coli MP-4, < 4 µg/mL; against K. pneumoniae MP-546 it was < 4 µg/mL; in the test with K. pneumoniae MP-648, 4 to 32 µg/mL (≈ 6.15 to 49.2 µM); against P. aeruginosa MP-3, > 32 µg/mL; in the test with A. baumannii MP-15, > 32 µg/mL.

Turning to `COC(CN1CCC(C[C@@H]2COC(=O)C(C)(C)C(=O)[C@H](C)[C@@H](O[C@@H]3O[C@H](C)C[C@H](N(C)C)[C@H]3O)[C@](C)(OC)C[C@@H](C)CN2C)CC1)OC` [Compound 65], the MIC is 4 to 32 µg/mL (≈ 5.83 to 46.7 µM) in the test on S. aureus MP-12; < 4 µg/mL in the test with E. coli MP-4; < 4 µg/mL against K. pneumoniae MP-546; 4 to 32 µg/mL (≈ 5.83 to 46.7 µM) with K. pneumoniae MP-648; > 32 µg/mL with P. aeruginosa MP-3; > 32 µg/mL in the test with A. baumannii MP-15.

With `CCCN1CC=C(C[C@@H]2COC(=O)C(C)(C)C(=O)[C@H](C)[C@@H](O[C@@H]3O[C@H](C)C[C@H](N(C)C)[C@H]3O)[C@](C)(OC)C[C@@H](C)CN2C)CC1` [Compound 59], the MIC in the test on S. aureus MP-12 is < 4 µg/mL; in the test with E. coli MP-4 it was < 4 µg/mL; in the test with K. pneumoniae MP-546, < 4 µg/mL; against K. pneumoniae MP-648, 4 to 32 µg/mL (≈ 6.27 to 50.2 µM); against P. aeruginosa MP-3 it was > 32 µg/mL; in the test on A. baumannii MP-15 it was > 32 µg/mL.

In the case of `CCCN1C[C@H](C)C[C@@](C)(OC)[C@H](O[C@@H]2O[C@H](C)C[C@H](N(C)C)[C@H]2O)[C@@H](C)C(=O)C(C)(C)C(=O)OC[C@@H]1CCCN(C)C(C)C` [Compound 18, (3S,6R,8R,9R,10R)-9-(((2S,3R,4S,6R)-4-(dimethylamino)-3-hydroxy-6-methyltetrahydro-2H-pyran-2-yl)oxy)-3-(3-(isopropyl(methyl)amino)propyl)-8-methoxy-6,8,10,12,12-pentamethyl-4-propyl-1-oxa-4-azacyclotridecane-11,13-dione], the MIC is < 4 µg/mL with S. aureus MP-12; < 4 µg/mL with E. coli MP-4; < 4 µg/mL against K. pneumoniae MP-546; < 4 µg/mL in the test with K. pneumoniae MP-648; > 32 µg/mL against P. aeruginosa MP-3; > 32 µg/mL in the test on A. baumannii MP-15.
